How the values were obtained:
[1] = (§1) Evaluation of pharmacokinetic parameters for Budesonide following single oral administration of Budesonide capsules (enteric coated) to healthy subjects and/or patients with Crohn's disease.; type: ADME, organism-based; set-up: dose 9 mg, route oral; conditions: human, in vivo, dosed compound id 9, dosed compound name BUDESONIDE, regimen Single dose, tissue Plasma
Homo sapiens = experiment: as §1; type: ADME, organism-based; set-up: dose 9 mg, route oral; conditions: in vivo, po, dosed compound id 9, dosed compound name BUDESONIDE, gender male and female, regimen Single dose, tissue Plasma
[2] = po, 9 mg, gender male and female

Tmax ([1]; 9 mg, route oral): 0.5 to 10 h | AUC [1, 2]: 0.03 µM·h | Cmax [1, 2]: 5 nM | fraction unbound ([1]; po, at 9 mg, gender male and female, route oral, read-out: Protein binding): 0.1 to 0.15 | Vd (Homo sapiens): 2.2 to 3.9 L/kg
SMILES: CCCC1O[C@@H]2C[C@H]3[C@@H]4CCC5=CC(=O)C=C[C@]5(C)[C@H]4[C@@H](O)C[C@]3(C)[C@]2(C(=O)CO)O1 (stereo not given in full) [BUDESONIDE]

From ChEMBL document CHEMBL3832549, “DailyMed|setid=7633c9b3-dfb5-446f-a260-e44b6e48afa2 | BUDESONIDE- budesonide capsule|Carilion Materials Management”
